Source: patent US12577248B2, “Substituted [1,2,4]triazolo[1,5-a]pyrazines as spleen tyrosine kinase inhibitors” (NANJING RUIJIE PHARMA CO., LTD., priority 2020, dated 2026)

Experiments:
SYK kinase = SYK kinase (Homo sapiens, UniProt P43405); test: SYK kinase assay (HTRF KinEASE-TK); format: biochemical; conditions: class symbols, read-out: Syk inhibition IC50
Experimental: A homogeneous time-resolved fluorescence (HTRF) assay was performed to assess the potential inhibitory effect of compounds on SYK kinase. The HTRF KinEASE-TK kit (Cisbio) was used. During the step, kinase will phosphorylate the substrate, and the resulting fluorescence signal is proportional to the phosphorylation level. The assay was performed in the following steps: First, the testing compounds were diluted 1:3 in succession in DMSO. The 1× kinase buffer contained 1 volume of 5× enzymatic buffer with 4 volumes of distilled water, 5 mM MgCl2, 1 mM MnCl2, and 1 mM DTT. The assays were assembled in 384 well plates (784075, Greiner) where 10 nl of compound solutions were added into each well, and the plates were centrifuged at 1000 g for 1 min. Then, 5 μl of 2×SYK in 1× kinase buffer were added to each well. The plates were centrifuged at 1000 g for 30 s and then incubated at room temperature for 10 min. The reaction was initiated by adding […] of premixed 2×TK-substrate-biotin and ATP mixture in 1× kinase buffer to the assay plates. The plates were centrifuged at 1000 g for 30 s and incubated at room temperature for 30 min. Phosphorylation was detected by adding 5 μl of 4×Sa-XL 665 in HTRF detection buffer into each well of the assay plates. The plates were centrifuged plates at 1000 g for 30 sec, and then incubated at room temperature for 1 h. Finally, the plates were read on an Envision 2104 plate reader (PerkinElmer) and the fluorescence signal was measured at 615 nm (Cryptate) and 665 nm (XL665).
A ratio (665/615 nm) was calculated for each well. The inhibition ratio was calculated as follow: […]
IC50 was calculated by fitting % Inhibition values and log of compound concentrations to nonlinear regression (dose response−variable slope) with GraphPad 6.0.

Ba/F3-TEL-SYK cells = target: T1, Ba/F3-TEL-SYK cells (Homo sapiens, UniProt P43405); test: Ba/F3-TEL-SYK cell-based assay (CellTiter-Glo proliferation); conditions: 72 hr, read-out: BaF3 Cell assay IC50
T1 construct: fused on or other part: N-terminal part of TEL (ETV6) with its oligomerising PNT/SAM domain, fused before the SYK part that carries the kinase domain; P41212 (Transcription factor ETV6)
Experimental: CellTiter-Glo® Luminescent Cell Viability Assay was used to determine the number of viable cells in culture based on quantitation of the ATP present, as an indicator of metabolically active cells. The assay was performed in the following steps: First, the testing compounds were dissolved in DMSO to make a stock solution. The stocks (10 mM) were then diluted to varying concentrations: […], 0.305 and 0.102 μM. An aliquot of 0.2 μl of diluted compounds were added to the 384 well assay plate. Second, added 40 μl of cell suspension with 800 Ba/F3-TEL-SYK cells into each well and incubated the plate at 37° C., 5% CO2 for 72 hr. Then, added 20 μl Cell Titer-Glo Reagent into each well of the cell culture plate. Mixed the contents for 2 min on an orbital shaker to lyse cells, and rest the plate at room temperature for 30 min. Finally, luminescence values were obtained using an Envision 2104 plate reader (PerkinElmer) and calculated the average data and Standard Deviation (SD) of DMSO and Reference (GS-9973, 1 μM) as high control and low control. To determine the IC50 value, fit the data using non-linear regression equation.

Q: What does the source list for `COc1cc(Nc2nc(-c3ccc4cn[nH]c4c3)cn3ncnc23)ccc1N1CCN(C)CC1` [I12, 6-(1H-indazol-6-yl)-N-(3-methoxy-4-(4-methylpiperazin-1-yl)phenyl)-[1,2,4]triazolo[1,5-a]pyrazin-8-amine]?
A: IC50 (SYK kinase): ≤ 50 nM; GI50 (Ba/F3-TEL-SYK cells): ≤ 50 nM

Q: Which results are given for `COc1cc(Nc2nc(-c3ccc4cn[nH]c4c3)cn3ncnc23)ccc1N1CCS(=O)(=O)CC1` [I24, 4-(4-((6-(1H-indazol-6-yl)-[1,2,4]triazolo[1,5-a]pyrazin-8-yl)amino)-2-methoxyphenyl)thiomorpholine 1,1-dioxide]?
A: IC50 (SYK kinase): ≤ 50 nM; GI50 (Ba/F3-TEL-SYK cells): ≤ 50 nM

Q: `COCCN1CCN(c2ccc(Nc3nc(-c4ccc5cn[nH]c5c4)cn4ncnc34)cc2OC)CC1` [I18, 6-(1H-indazol-6-yl)-N-(3-methoxy-4-(4-(2-methoxyethyl)piperazin-1-yl)phenyl)-[1,2,4]triazolo[1,5-a]pyrazin-8-amine] was tested. Which IC50 (SYK kinase) did it give?
A: ≤ 50 nM

Q: And the GI50 (Ba/F3-TEL-SYK cells)?
A: ≤ 50 nM

Q: With `c1nc2c(Nc3ccc(N4CC5(COC5)C4)cc3)nc(-c3ccc4cn[nH]c4c3)cn2n1` [I59, N-(4-(2-oxa-6-azaspiro[3.3]heptan-6-yl)phenyl)-6-(1H-indazol-6-yl)-[1,2,4]triazolo[1,5-a]pyrazin-8-amine] as the compound, how does the IC50 (SYK kinase) read?
A: 50 to 500 nM

Q: And the GI50 (Ba/F3-TEL-SYK cells)?
A: 50 to 500 nM

Q: How did the IC50 (SYK kinase) turn out when `CC(C)Oc1cc(Nc2nc(-c3ccc4cc[nH]c4c3)cn3ncnc23)ccc1N1CC2CC1CN2C1COC1` (centres unmarked) [I81, 6-(1H-indol-6-yl)-N-(3-isopropoxy-4-(5-(oxetan-3-yl)-2,5-diazabicyclo[2.2.1]heptan-2-yl)phenyl)-[1,2,4]triazolo[1,5-a]pyrazin-8-amine] was run?
A: 50 to 500 nM

Q: What about the GI50 (Ba/F3-TEL-SYK cells) of the same compound?
A: 500 to 5000 nM

Q: What does the source list for `CC1(O)CCN(c2ccc(Nc3nc(-c4ccc5cn[nH]c5c4)cn4ncnc34)cc2)CC1` [I23, 1-(4-((6-(1H-indazol-6-yl)-[1,2,4]triazolo[1,5-a]pyrazin-8-yl)amino)phenyl)-4-methylpiperidin-4-ol]?
A: IC50 (SYK kinase): ≤ 50 nM; GI50 (Ba/F3-TEL-SYK cells): 50 to 500 nM

Q: `COc1cc(Nc2nc(-c3cncc(N)n3)cn3ncnc23)ccc1N1CCN(C2COC2)CC1` [I56, 6-(6-aminopyrazin-2-yl)-N-(3-methoxy-4-(4-(oxetan-3-yl)piperazin-1-yl)phenyl)-[1,2,4]triazolo[1,5-a]pyrazin-8-amine] was tested. Which IC50 (SYK kinase) did it give?
A: 50 to 500 nM

Q: And the GI50 (Ba/F3-TEL-SYK cells)?
A: 500 to 5000 nM

Q: `FC(F)Oc1cc(Nc2nc(-c3ccc4cn[nH]c4c3)cn3ncnc23)ccc1N1CCOCC1` [I21, N-(3-(difluoromethoxy)-4-morpholinophenyl)-6-(1H-indazol-6-yl)-[1,2,4]triazolo[1,5-a]pyrazin-8-amine] was tested. Which IC50 (SYK kinase) did it give?
A: ≤ 50 nM

Q: What about the GI50 (Ba/F3-TEL-SYK cells) of the same compound?
A: 50 to 500 nM

Q: What does the source list for `CCN1CCN(c2ccc(Nc3nc(-c4ccc5cn[nH]c5c4)cn4ncnc34)cc2OC)CC1` [I16, N-(4-(4-ethylpiperazin-1-yl)-3-methoxyphenyl)-6-(1H-indazol-6-yl)-[1,2,4]triazolo[1,5-a]pyrazin-8-amine]?
A: IC50 (SYK kinase): ≤ 50 nM; GI50 (Ba/F3-TEL-SYK cells): ≤ 50 nM

Q: `COc1cc(Nc2nc(-c3ccc4c(c3)N=CC4)cn3ncnc23)ccc1N1CC2(COC2)C1` [I62, 6-(3H-indol-6-yl)-N-(3-methoxy-4-(2-oxa-6-azaspiro[3.3]heptan-6-yl)phenyl)-[1,2,4]triazolo[1,5-a]pyrazin-8-amine] was tested. Which IC50 (SYK kinase) did it give?
A: ≤ 50 nM

Q: What about the GI50 (Ba/F3-TEL-SYK cells) of the same compound?
A: 50 to 500 nM

Q: Which results are given for `O=C(O)c1ccc(NC(=O)c2cccc(-c3cn4ncnc4c(Nc4ccc(N5CCOCC5)cc4)n3)c2)cc1` [I7, 4-(3-(8-((4-morpholinophenyl)amino)-[1,2,4]triazolo[1,5-a]pyrazin-6-yl)benzamido)benzoic acid]?
A: IC50 (SYK kinase): ≤ 50 nM; GI50 (Ba/F3-TEL-SYK cells): > 5000 nM

Q: `O=S1(=O)CCN(c2ccc(Nc3nc(-c4ccc5cn[nH]c5c4)cn4ncnc34)cc2)CC1` [I25, 4-(4-((6-(1H-indazol-6-yl)-[1,2,4]triazolo[1,5-a]pyrazin-8-yl)amino)phenyl)thiomorpholine 1,1-dioxide] was tested. Which IC50 (SYK kinase) did it give?
A: ≤ 50 nM

Q: And the GI50 (Ba/F3-TEL-SYK cells)?
A: 50 to 500 nM

Q: What does the source list for `O=C1COc2cc(-c3cn4ncnc4c(Nc4ccc(N5CCOCC5)cc4)n3)ccc2N1` [I29, 7-(8-((4-morpholinophenyl)amino)-[1,2,4]triazolo[1,5-a]pyrazin-6-yl)-2H-benzo[b][1,4]oxazin-3(4H)-one]?
A: IC50 (SYK kinase): ≤ 50 nM; GI50 (Ba/F3-TEL-SYK cells): 50 to 500 nM

Q: With `COc1cc(Nc2nc(-c3ccc4cn[nH]c4c3)cn3ncnc23)ccc1N1CCN(C(C)C)CC1` [I17, 6-(1H-indazol-6-yl)-N-(4-(4-isopropylpiperazin-1-yl)-3-methoxyphenyl)-[1,2,4]triazolo[1,5-a]pyrazin-8-amine] as the compound, how does the IC50 (SYK kinase) read?
A: ≤ 50 nM

Q: What about the GI50 (Ba/F3-TEL-SYK cells) of the same compound?
A: 50 to 500 nM

Q: Which results are given for `COc1ccc(Nc2nc(-c3ccc4cn[nH]c4c3)cn3ncnc23)cc1OC` [I3, N-(3,4-dimethoxyphenyl)-6-(1H-indazol-6-yl)-[1,2,4]triazolo[1,5-a]pyrazin-8-amine]?
A: IC50 (SYK kinase): ≤ 50 nM; GI50 (Ba/F3-TEL-SYK cells): ≤ 50 nM

Q: How did the IC50 (SYK kinase) turn out when `FC(F)(F)Oc1cc(Nc2nc(-c3ccc4cc[nH]c4c3)cn3ncnc23)ccc1N1CC2CC1CN2C1COC1` (centres unmarked) [I77, 6-(1H-indol-6-yl)-N-(4-(5-(oxetan-3-yl)-2,5-diazabicyclo[2.2.1]heptan-2-yl)-3-(trifluoromethoxy)phenyl)-[1,2,4]triazolo[1,5-a]pyrazin-8-amine] was run?
A: 50 to 500 nM

Q: And the GI50 (Ba/F3-TEL-SYK cells)?
A: > 5000 nM

Q: For `CC(C)N1C[C@@H]2C[C@@H]1CN2c1ccc(Nc2nc(-c3ccc4[nH]ncc4c3)cn3ncnc23)cc1` [I69, 6-(1H-indazol-5-yl)-N-(4-((1S,4R)-5-isopropyl-2,5-diazabicyclo[2.2.1]heptan-2-yl)phenyl)-[1,2,4]triazolo[1,5-a]pyrazin-8-amine], which IC50 (SYK kinase) is on record?
A: 50 to 500 nM

Q: What about the GI50 (Ba/F3-TEL-SYK cells) of the same compound?
A: 500 to 5000 nM

Q: For `CCOc1cc(Nc2nc(-c3ccc4cn[nH]c4c3)cn3ncnc23)ccc1N1CCOCC1` [I73, N-(3-ethoxy-4-morpholinophenyl)-6-(1H-indazol-6-yl)-[1,2,4]triazolo[1,5-a]pyrazin-8-amine], which IC50 (SYK kinase) is on record?
A: ≤ 50 nM

Q: And the GI50 (Ba/F3-TEL-SYK cells)?
A: 50 to 500 nM

Q: `COc1cc(Nc2nc(-c3ccc4cn[nH]c4c3)cn3ncnc23)ccc1N1CC2(COC2)C1` [I60, 6-(1H-indazol-6-yl)-N-(3-methoxy-4-(2-oxa-6-azaspiro[3.3]heptan-6-yl)phenyl)-[1,2,4]triazolo[1,5-a]pyrazin-8-amine] was tested. Which IC50 (SYK kinase) did it give?
A: 50 to 500 nM

Q: And the GI50 (Ba/F3-TEL-SYK cells)?
A: 50 to 500 nM

Q: How did the IC50 (SYK kinase) turn out when `O=C1COc2cc(-c3cn4ncnc4c(Nc4ccc5c(c4)OC(F)(F)O5)n3)cnc2N1` [I38, 7-(8-((2,2-difluorobenzo[d][1,3]dioxol-5-yl)amino)-[1,2,4]triazolo[1,5-a]pyrazin-6-yl)-2H-pyrido[3,2-b][1,4]oxazin-3(4H)-one] was run?
A: > 5000 nM

Q: For `Cc1cc(Nc2nc(-c3ccc4cn[nH]c4c3)cn3cnnc23)ccc1N1CCOCC1` [I42, 6-(1H-indazol-6-yl)-N-(3-methyl-4-morpholinophenyl)-[1,2,4]triazolo[4,3-a]pyrazin-8-amine], which IC50 (SYK kinase) is on record?
A: > 5000 nM

Q: `CC1(C)Oc2cc(-c3cn4ncnc4c(Nc4ccc5c(c4)OC(F)(F)O5)n3)cnc2NC1=O` [I39, 7-(8-((2,2-difluorobenzo[d][1,3]dioxol-5-yl)amino)-[1,2,4]triazolo[1,5-a]pyrazin-6-yl)-2,2-dimethyl-2H-pyrido[3,2-b][1,4]oxazin-3(4H)-one] was tested. Which IC50 (SYK kinase) did it give?
A: > 5000 nM

Q: How did the IC50 (SYK kinase) turn out when `Fc1n[nH]c2cc(-c3cn4cnnc4c(Nc4ccc(N5CCOCC5)cc4)n3)ccc12` [I45, 6-(3-fluoro-1H-indazol-6-yl)-N-(4-morpholinophenyl)-[1,2,4]triazolo[4,3-a]pyrazin-8-amine] was run?
A: > 5000 nM

Q: With `CCS(=O)(=O)N1CCN(c2ccc(Nc3nc(-c4ccc5cn[nH]c5c4)cn4ncnc34)cc2OC)CC1` [I13, N-(4-(4-(ethylsulfonyl)piperazin-1-yl)-3-methoxyphenyl)-6-(1H-indazol-6-yl)-[1,2,4]triazolo[1,5-a]pyrazin-8-amine] as the compound, how does the IC50 (SYK kinase) read?
A: ≤ 50 nM

Q: How did the IC50 (SYK kinase) turn out when `COc1cc(Nc2nc(-c3ccc4cn[nH]c4c3)cn3ncnc23)ccc1N1CCN(CCO)CC1` [I15, 2-(4-(4-((6-(1H-indazol-6-yl)-[1,2,4]triazolo[1,5-a]pyrazin-8-yl)amino)-2-methoxyphenyl)piperazin-1-yl)ethan-1-ol] was run?
A: ≤ 50 nM
